Source: article PMC4429288 (The Journal of antibiotics, 2014)
Counter-ions that a name gives are not always drawn.

Tests used:
[1] = system: S. aureus (MRSA, VISA and VRSA strains); assay: MIC, broth microdilution; format: cell-based, Staphylococcus aureus
[2] = system: S. epidermidis ATCC 35984; assay: MIC, broth microdilution; format: cell-based; settings: Staphylococcus epidermidis, ATCC35984
[3] = system: S. aureus (MRSA, VISA and VRSA strains); assay: MBC, plating from MIC wells; format: cell-based, Staphylococcus aureus
[4] = system: methicillin-resistant Staphylococcus aureus (MRSA); assay: Single-step resistance selection; format: cell-based; settings: 4 × MIC; for Single-step frequency of resistance: resistant colonies per inoculum
[5] = system: MRSA NRS123 (USA400); assay: Time-kill analysis
[6] = Staphylococcus aureus, ATCC43300|MRSA|VISA|VRSA
[7] = Staphylococcus aureus, MRSA|NRS107|VISA|VRSA
[8] = Staphylococcus aureus, MRSA|NRS119|VISA|VRSA
[9] = Staphylococcus aureus, MRSA|NRS123|USA400|VISA|VRSA
[10] = Staphylococcus aureus, MRSA|NRS194|VISA|VRSA
[11] = Staphylococcus aureus, MRSA|NRS384|USA300|VISA|VRSA
[12] = Staphylococcus aureus, MRSA|NRS385|USA500|VISA|VRSA

Compound `CN[C@H](CC(C)C)C(=O)N[C@H]1C(=O)N[C@@H](CC(N)=O)C(=O)N[C@H]2C(=O)N[C@H]3C(=O)N[C@H](C(=O)N[C@H](C(=O)O)c4cc(O)cc(O)c4-c4cc3ccc4O)[C@H](O)c3ccc(c(Cl)c3)Oc3cc2cc(c3O[C@@H]2O[C@H](CO)[C@@H](O)[C@H](O)[C@H]2O[C@H]2C[C@](C)(N)[C@H](O)[C@H](C)O2)Oc2ccc(cc2Cl)[C@H]1O` [Vancomycin, vancomycin hydrochloride] has an MIC [1, 6] of 0.74 µg/mL, an MIC [1, 7] of 0.74 µg/mL and an MIC [1, 8] of 0.74 µg/mL. The MIC [1, 9] was 0.37 µg/mL, the MIC [1, 10] was 0.74 µg/mL and the MIC [1, 11] was 0.74 µg/mL. For the same compound, the MIC [1, 12] was 0.74 µg/mL, the MIC [2] was 0.74 µg/mL and the MBC [3, 6] was 0.74 µg/mL. The MBC ([3]; Staphylococcus aureus, MRSA|NRS1|VISA|VRSA) was 2.97 µg/mL, the MBC ([3]; Staphylococcus aureus, MRSA|NRS19|VISA|VRSA) was 2.97 µg/mL and the MBC ([3]; Staphylococcus aureus, MRSA|NRS37|VISA|VRSA) was 2.97 µg/mL. The MBC [3, 7] was 1.49 µg/mL, the MBC [3, 8] was 1.49 µg/mL and the MBC [3, 9] was 0.37 µg/mL. For the same compound, the MBC [3, 10] was 0.74 µg/mL, the MBC [3, 11] was 0.74 µg/mL and the MBC [3, 12] was 0.74 µg/mL. The “Single-step frequency of resistance” value ([4]; MRSA NRS119) was >8.47×10^−10, the “Single-step frequency of resistance” value ([4]; MRSA NRS123 (USA400)) was >2.33×10^−10 and the “Single-step frequency of resistance” value ([4]; MRSA NRS384 (USA300)) was 3.03×10^−10. The “Single-step frequency of resistance” value ([4]; MRSA NRS385 (USA500)) was >3.31×10^−10, the “Time to 3-log10 reduction in CFUml^−1” value ([5]; 2 × MIC) was at most 24 h and the “Time to complete elimination of MRSA” value ([5]; 2 × MIC) was “not able to eliminate all bacteria completely”. For the same compound, the “Time to complete elimination of MRSA” value ([5]; 4 × MIC) was 24 h and the “Time to complete elimination of MRSA” value ([5]; 8 × MIC) was 24 h.

teicoplanin gave an MIC ([1]; MRSA ATCC 43300) of 0.94 µg/mL, an MIC ([1]; MRSA NRS107) of 0.94 µg/mL and an MIC ([1]; MRSA NRS119) of 0.94 µg/mL. The MIC ([1]; MRSA NRS123 (USA400)) was 0.94 µg/mL, the MIC ([1]; MRSA NRS194) was 0.94 µg/mL and the MIC ([1]; MRSA NRS384 (USA300)) was 0.94 µg/mL. It also gave an MIC ([1]; MRSA NRS385 (USA500)) of 0.94 µg/mL, an MIC ([1]; VISA NRS1) of 3.76 µg/mL and an MIC ([1]; VISA NRS19) of 0.94 µg/mL. For the same compound, the MIC ([1]; VISA NRS37) was 7.52 µg/mL, the MIC range ([1]; VISA strains) was 0.94 to 7.52 µg/mL and the MIC ([1]; VRSA VRS1) was 120.30 µg/mL. It also gave an MIC ([1]; VRSA VRS4) of 60.15 µg/mL, an MIC ([1]; VRSA VRS5) of 60.15 µg/mL and an MIC range ([1]; all three VRSA strains) of 60.51 to 120.30 µg/mL. The MBC ([3]; MRSA ATCC 43300) was 3.76 µg/mL, the MBC ([3]; MRSA NRS107) was 0.94 µg/mL and the MBC ([3]; MRSA NRS119) was 0.94 µg/mL. It also gave an MBC ([3]; MRSA NRS123 (USA400)) of 15.04 µg/mL, an MBC ([3]; MRSA NRS194) of 15.04 µg/mL and an MBC ([3]; MRSA NRS384 (USA300)) of 15.04 µg/mL. The MBC ([3]; MRSA NRS385 (USA500)) was 3.76 µg/mL, the MBC ([3]; VISA NRS1) was 7.52 µg/mL and the MBC ([3]; VISA NRS19) was 0.94 µg/mL. It also gave an MBC ([3]; VISA NRS37) of 7.52 µg/mL, an MBC ([3]; VRSA VRS1) of 240.60 µg/mL and an MBC ([3]; VRSA VRS4) of 60.15 µg/mL. The MBC ([3]; VRSA VRS5) was 60.15 µg/mL, the “MBC relative to MIC” value ([3]; three strains of MRSA (NRS194, USA300, and USA400)) was 16 fold and the “MBC relative to MIC” value ([3]; two additional MRSA strains) was “four”. For the same compound, the “Single-step frequency of resistance” value ([4]; MRSA NRS107) was 1.91×10^−8, the “Single-step frequency of resistance” value ([4]; MRSA NRS119) was 2.73×10^−7 and the “Single-step frequency of resistance” value ([4]; MRSA NRS123 (USA400)) was 2.21×10^−9. For the same compound, the “Single-step frequency of resistance” value ([4]; MRSA NRS384 (USA300)) was 3.03×10^−9, the “Single-step frequency of resistance” value ([4]; MRSA NRS385 (USA500)) was 1.79×10^−8 and the Mutation frequency range ([4]; five MRSA strains) was 2.73×10^−7 to 3.03×10^−9. For the same compound, the “Time to complete elimination of MRSA” value ([5]; 2 × MIC) was 24 h, the “Time to complete elimination of MRSA” value ([5]; 4 × MIC) was 24 h and the “Time to complete elimination of MRSA” value ([5]; 8 × MIC) was 24 h.
